Holding throughout (type): cell-based
One experiment deals with GSPT1 (Homo sapiens, UniProt P15170+Q96SW2). In words: GSPT1 Cellular Degradation Assay (DF15-GSPT1-ePL). Details: expressed in transfected cells. The settings on record: DF15-GSPT1-ePL cells, 20 hours. The essentials: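 Human DF15 cells co-expressing a GSPT1–ePL fusion were treated with compound in RPMI 1640/10% FBS for 20 h at 37 °C. GSPT1 level was read by enzyme-fragment-complementation luminescence after 60 min with detection reagent. The reference degrader at […] defined 75% response; DC50 and Dmax were reported.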
Sequence of GSPT1 (P15170 whole entry, the tested form may be a part): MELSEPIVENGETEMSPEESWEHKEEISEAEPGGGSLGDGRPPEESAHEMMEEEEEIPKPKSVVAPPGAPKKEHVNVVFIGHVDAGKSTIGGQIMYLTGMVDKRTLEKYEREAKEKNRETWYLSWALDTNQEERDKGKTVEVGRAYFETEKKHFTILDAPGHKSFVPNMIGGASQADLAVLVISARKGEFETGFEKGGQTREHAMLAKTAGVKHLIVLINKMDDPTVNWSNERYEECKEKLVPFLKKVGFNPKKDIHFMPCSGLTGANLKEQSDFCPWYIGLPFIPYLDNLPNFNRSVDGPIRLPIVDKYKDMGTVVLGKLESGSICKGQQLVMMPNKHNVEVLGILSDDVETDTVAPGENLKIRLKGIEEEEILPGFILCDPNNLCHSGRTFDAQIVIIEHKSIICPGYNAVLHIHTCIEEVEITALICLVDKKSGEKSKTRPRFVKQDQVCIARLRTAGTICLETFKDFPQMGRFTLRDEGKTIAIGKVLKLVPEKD
Sequence of GSPT1 (Q96SW2 whole entry, the tested form may be a part): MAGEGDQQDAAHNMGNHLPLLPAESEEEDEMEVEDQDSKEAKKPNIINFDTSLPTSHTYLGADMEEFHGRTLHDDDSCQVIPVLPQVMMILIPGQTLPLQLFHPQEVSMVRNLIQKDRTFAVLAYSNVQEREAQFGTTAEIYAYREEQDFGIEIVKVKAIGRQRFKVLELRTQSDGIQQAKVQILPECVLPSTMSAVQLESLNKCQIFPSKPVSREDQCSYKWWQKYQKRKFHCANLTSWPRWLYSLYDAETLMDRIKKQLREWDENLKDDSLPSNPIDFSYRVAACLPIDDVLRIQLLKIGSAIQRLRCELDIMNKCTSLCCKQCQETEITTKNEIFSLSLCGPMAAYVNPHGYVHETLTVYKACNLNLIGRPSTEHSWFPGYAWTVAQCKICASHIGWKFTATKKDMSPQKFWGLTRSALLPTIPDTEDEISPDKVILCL
Sequence of GSPT1 (Q16531 whole entry partner, the tested form may be a part): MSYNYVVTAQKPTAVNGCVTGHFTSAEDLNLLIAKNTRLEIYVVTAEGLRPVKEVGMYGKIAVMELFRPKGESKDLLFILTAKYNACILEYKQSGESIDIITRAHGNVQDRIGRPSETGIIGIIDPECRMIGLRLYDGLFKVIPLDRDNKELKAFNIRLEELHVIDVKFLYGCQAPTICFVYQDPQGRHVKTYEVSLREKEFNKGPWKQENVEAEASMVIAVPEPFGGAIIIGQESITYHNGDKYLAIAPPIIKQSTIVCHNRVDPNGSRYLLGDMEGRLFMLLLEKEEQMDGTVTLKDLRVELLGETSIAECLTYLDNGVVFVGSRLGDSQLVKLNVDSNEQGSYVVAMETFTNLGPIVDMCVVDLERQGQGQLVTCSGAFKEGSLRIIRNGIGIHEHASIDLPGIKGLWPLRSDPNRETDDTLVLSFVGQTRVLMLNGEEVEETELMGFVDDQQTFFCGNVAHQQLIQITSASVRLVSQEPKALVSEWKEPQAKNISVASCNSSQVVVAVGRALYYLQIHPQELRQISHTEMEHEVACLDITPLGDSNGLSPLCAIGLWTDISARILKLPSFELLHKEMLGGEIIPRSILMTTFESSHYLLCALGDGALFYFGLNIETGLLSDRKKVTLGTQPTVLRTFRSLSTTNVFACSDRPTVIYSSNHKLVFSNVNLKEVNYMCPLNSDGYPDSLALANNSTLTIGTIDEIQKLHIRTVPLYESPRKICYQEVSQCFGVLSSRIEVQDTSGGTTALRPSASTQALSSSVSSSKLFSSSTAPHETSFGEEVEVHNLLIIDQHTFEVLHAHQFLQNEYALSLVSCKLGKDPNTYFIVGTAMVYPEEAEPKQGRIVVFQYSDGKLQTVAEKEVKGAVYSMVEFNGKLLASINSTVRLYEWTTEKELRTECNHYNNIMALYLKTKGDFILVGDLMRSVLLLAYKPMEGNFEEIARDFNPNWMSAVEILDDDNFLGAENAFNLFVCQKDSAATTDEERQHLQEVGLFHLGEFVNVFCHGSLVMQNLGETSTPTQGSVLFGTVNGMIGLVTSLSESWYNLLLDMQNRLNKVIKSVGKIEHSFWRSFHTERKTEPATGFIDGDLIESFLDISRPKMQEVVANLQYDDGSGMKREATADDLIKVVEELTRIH

Another experiment deals with Cyclin E1 (Homo sapiens, UniProt P24864+Q96SW2). Nature of the experiment: Cyclin E1 Cellular Degradation Assay (MSD). Also on record: endogenous in cells; host or cells: OVCAR3. The settings on record: for DC50 / Dmax: Cyclin E1 cellular degradation; for Dmax: maximum degradation; for Ratio of GSPT1 DC50/Cyclin E1 DC50: selectivity for degradation of Cyclin E1 over GSPT1. The essentials:
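OVCAR3 cells treated with compound for 24 h at 37 °C, lysed, and cyclin E1 measured by MSD sandwich immunoassay (rabbit capture, mouse detection anti-CCNE1). Reference degrader at […] defined 110% response; DC50 and Dmax derived from response.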

A further experiment has as its system Phospho-Rb (Ser807/811). In words: Phospho-Retinoblastoma (pRB) Cellular Assay. The settings on record: Homo sapiens, OVCAR-3, NIH OVCAR3 cells, 24 hours; for IC50: concentration giving 50% response; for Emax: maximum response, reference compound at 10 μM = 100%, read-out: pRB Ymax. The essentials: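 OVCAR3 cells seeded overnight, then dosed with serial dilutions for 24 h at 37° C. Lysed with kit mix plus phosphatase inhibitor, ≥4 h at room temperature, read on EnVision; 100% response set by reference compound at 10 μM, giving IC50 and Ymax.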

Sequence of Cyclin E1 (P24864 whole entry): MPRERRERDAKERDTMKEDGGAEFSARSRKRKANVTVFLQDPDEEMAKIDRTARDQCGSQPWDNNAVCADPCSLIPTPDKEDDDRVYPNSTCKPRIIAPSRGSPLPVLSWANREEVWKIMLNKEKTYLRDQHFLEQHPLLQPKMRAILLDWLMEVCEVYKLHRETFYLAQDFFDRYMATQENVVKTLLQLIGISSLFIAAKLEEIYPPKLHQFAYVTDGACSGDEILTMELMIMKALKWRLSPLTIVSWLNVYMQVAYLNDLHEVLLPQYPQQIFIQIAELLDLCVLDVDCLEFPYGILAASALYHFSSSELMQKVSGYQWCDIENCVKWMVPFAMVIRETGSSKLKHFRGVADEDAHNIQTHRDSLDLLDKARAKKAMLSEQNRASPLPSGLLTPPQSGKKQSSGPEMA
Sequence of Cyclin E1 (Q96SW2 whole entry): as the sequence (Q96SW2 whole entry, the tested form may be a part) above
Sequence of Cyclin E1 (Q16531 whole entry partner): as the sequence (Q16531 whole entry partner, the tested form may be a part) above

Regarding `CC(C)(O)COc1c(COC(=O)Nc2ccc(Oc3cc(F)c(F)c(F)c3)cc2F)ccc2c1C(=O)N(C1CCC(=O)NC1=O)C2` (centres unmarked) [Example 165, [2-(2,6-dioxopiperidin-3-yl)-4-(2-hydroxy-2-methylpropoxy)-3-oxo-2,3-dihydro-1H-isoindol-5-yl]methyl N-[2-fluoro-4-(3,4,5-trifluorophenoxy)phenyl]carbamate], on GSPT1, the DC50 was greater than 14000 nM and the Dmax is 10%. Further, at Cyclin E1, the DC50 amounted to 42 nM, the Dmax came out at 107% and the “Ratio of GSPT1 DC50/Cyclin E1 DC50” value is greater than 332. Besides, in the experiment with Phospho-Rb (Ser807/811), 28 nM corresponded to half-maximal inhibition (IC50) and the Emax came to 133%.
Take `O=C1CCC(N2Cc3ccc(COC(=O)Nc4ccc(Oc5ccc(F)c(F)c5)cc4)c(O[C@H]4CC[C@H](O)CC4)c3C2=O)C(=O)N1` (stereo partly drawn) [Example 166, [2-(2,6-dioxopiperidin-3-yl)-3-oxo-4-{[(1R,4R)-4-hydroxycyclohexyl]oxy}-2,3-dihydro-1H-isoindol-5-yl]methyl N-[4-(3,4-difluorophenoxy)phenyl]carbamate]: at GSPT1, the half-maximal degradation concentration (DC50) is greater than 14000 nM and the Dmax is 27%. For the same molecule, at Cyclin E1, the DC50 amounted to 87 nM, the Dmax came out at 108% and the “Ratio of GSPT1 DC50/Cyclin E1 DC50” value is listed as greater than 160. Further, in the experiment with Phospho-Rb (Ser807/811), the half-maximal inhibitory concentration (IC50) was 95 nM and the Emax amounted to 134%.
As to `O=C1CCC(N2Cc3ccc(COC(=O)Nc4ccc(Oc5ccc(F)c(F)c5)cc4)c(O[C@H]4CC[C@@H](O)CC4)c3C2=O)C(=O)N1` (stereo partly drawn) [Example 167, [2-(2,6-dioxopiperidin-3-yl)-3-oxo-4-{[(1S,4S)-4-hydroxycyclohexyl]oxy}-2,3-dihydro-1H-isoindol-5-yl]methyl N-[4-(3,4-difluorophenoxy)phenyl]carbamate], on GSPT1, the half-maximal degradation concentration (DC50) is greater than 14000 nM and the Dmax is 6%. For the same molecule, on Cyclin E1, it took 13 nM to reach half-maximal degradation (DC50), the Dmax came to 111% and the “Ratio of GSPT1 DC50/Cyclin E1 DC50” value is >1,042. Further, in the experiment with Phospho-Rb (Ser807/811), it took 8 nM to reach half-maximal inhibition (IC50) and the Emax was 148%.
As to `COCCOc1c(COC(=O)Nc2ccc(Oc3ccc(F)c(F)c3)cc2)ccc2c1C(=O)N(C1CCC(=O)NC1=O)C2` (centres unmarked) [Example 168, [2-(2,6-dioxopiperidin-3-yl)-4-(2-methoxyethoxy)-3-oxo-2,3-dihydro-1H-isoindol-5-yl]methyl N-[4-(3,4-difluorophenoxy)phenyl]carbamate], on GSPT1, the DC50 is greater than 14000 nM and the Dmax stood at 33%. Besides, at Cyclin E1, the 50% degradation concentration (DC50) turned out to be 62 nM, the Dmax came to 110% and the “Ratio of GSPT1 DC50/Cyclin E1 DC50” value was greater than 226. In the experiment on Phospho-Rb (Ser807/811), 19 nM corresponded to half-maximal inhibition (IC50) and the Emax is 118%.
In the case of `COCCOc1c(COC(=O)Nc2ccc(Oc3ccc(F)c(F)c3)cc2F)ccc2c1C(=O)N(C1CCC(=O)NC1=O)C2` (centres unmarked) [Example 169, [2-(2,6-dioxopiperidin-3-yl)-4-(2-methoxyethoxy)-3-oxo-2,3-dihydro-1H-isoindol-5-yl]methyl N-[4-(3,4-difluorophenoxy)-2-fluorophenyl]carbamate], on GSPT1, the DC50 is greater than 14000 nM and the Dmax was 7%. At Cyclin E1, half-maximal degradation (DC50) was put at 88 nM, the Dmax was found to be 104% and the “Ratio of GSPT1 DC50/Cyclin E1 DC50” value is listed as greater than 159. In the experiment with Phospho-Rb (Ser807/811), half-maximal inhibition (IC50) was put at 36 nM and the Emax amounted to 120%.
Take `O=C1CCC(N2Cc3ccc(COC(=O)Nc4ccc(Oc5ccc(F)c(F)c5)cc4)c(OC4CCCOCC4)c3C2=O)C(=O)N1` (centres unmarked) [Example 170, [2-(2,6-dioxopiperidin-3-yl)-4-(oxepan-4-yloxy)-3-oxo-2,3-dihydro-1H-isoindol-5-yl]methyl N-[4-(3,4-difluorophenoxy)phenyl]carbamate]: at GSPT1, the DC50 was greater than 14000 nM and the Dmax came to 0%. For the same molecule, at Cyclin E1, half-maximal degradation (DC50) was put at 15 nM, the Dmax came out at 109% and the “Ratio of GSPT1 DC50/Cyclin E1 DC50” value is listed as greater than 930. Also, in the experiment with Phospho-Rb (Ser807/811), the IC50 was 52 nM and the Emax turned out to be 142%.
On to `O=C1CCC(N2Cc3ccc(COC(=O)Nc4ccc(Oc5ccccc5)cc4)c(Oc4cccnc4)c3C2=O)C(=O)N1` (centres unmarked) [Example 171, [2-(2,6-dioxopiperidin-3-yl)-3-oxo-4-(pyridin-3-yloxy)-2,3-dihydro-1H-isoindol-5-yl]methyl N-(4-phenoxyphenyl)carbamate], for which, at GSPT1, the DC50 was greater than 14000 nM and the Dmax is 0%. Further, on Cyclin E1, half-maximal degradation (DC50) was put at 170 nM, the Dmax turned out to be 107% and the “Ratio of GSPT1 DC50/Cyclin E1 DC50” value is reported as greater than 82. Besides, in the experiment on Phospho-Rb (Ser807/811), the IC50 was 160 nM and the Emax was determined as 130%.
As to `O=C1CCC(N2Cc3ccc(COC(=O)Nc4ccc(Oc5ccc(F)c(F)c5)cc4)c(Oc4cccnc4)c3C2=O)C(=O)N1` (centres unmarked) [Example 172, [2-(2,6-dioxopiperidin-3-yl)-3-oxo-4-(pyridin-3-yloxy)-2,3-dihydro-1H-isoindol-5-yl]methyl N-[4-(3,4-difluorophenoxy)phenyl]carbamate], at GSPT1, the DC50 was greater than 14000 nM and the Dmax stood at 6%. Moreover, on Cyclin E1, the 50% degradation concentration (DC50) was 79 nM, the Dmax is 100% and the “Ratio of GSPT1 DC50/Cyclin E1 DC50” value was greater than 177. Besides, in the experiment with Phospho-Rb (Ser807/811), inhibition was half-maximal at 118 nM (IC50) and the Emax was found to be 120%.
`O=C1CC[C@H](N2Cc3ccc(COC(=O)Nc4ccc(Oc5ccc(F)c(F)c5)cc4)c(OCCCc4ccccc4)c3C2=O)C(=O)N1` [Example 173, {2-[(3S)-2,6-dioxopiperidin-3-yl]-3-oxo-4-(3-phenylpropoxy)-2,3-dihydro-1H-isoindol-5-yl}methyl N-[4-(3,4-difluorophenoxy)phenyl]carbamate]: at GSPT1, the DC50 is greater than 14000 nM and the Dmax was found to be 14%. Moreover, on Cyclin E1, half-maximal degradation (DC50) was put at 156 nM, the Dmax was 105% and the “Ratio of GSPT1 DC50/Cyclin E1 DC50” value is reported as greater than 89. In the experiment on Phospho-Rb (Ser807/811), half-maximal inhibition (IC50) required 129 nM and the Emax was 127%.
`COC(=O)COc1c(COC(=O)Nc2ccc(Oc3ccc(F)c(F)c3)cc2)ccc2c1C(=O)N(C1CCC(=O)NC1=O)C2` (centres unmarked) [Example 174, Methyl 2-({5-[({[4-(3,4-difluorophenoxy)phenyl]carbamoyl}oxy)methyl]-2-(2,6-dioxopiperidin-3-yl)-3-oxo-2,3-dihydro-1H-isoindol-4-yl}oxy)acetate]: at GSPT1, the DC50 is greater than 14000 nM and the Dmax came to 16%. Besides, on Cyclin E1, the DC50 came to 204 nM, the Dmax was found to be 100% and the “Ratio of GSPT1 DC50/Cyclin E1 DC50” value was greater than 69. Also, in the experiment on Phospho-Rb (Ser807/811), the half-maximal inhibitory concentration (IC50) is 473 nM and the Emax is 99%.
Turning to `CN(C)C(=O)COc1c(COC(=O)Nc2ccc(Oc3ccc(F)c(F)c3)cc2)ccc2c1C(=O)N(C1CCC(=O)NC1=O)C2` (centres unmarked) [Example 175, {4-[(dimethylcarbamoyl)methoxy]-2-(2,6-dioxopiperidin-3-yl)-3-oxo-2,3-dihydro-1H-isoindol-5-yl}methyl N-[4-(3,4-difluorophenoxy)phenyl]carbamate], at GSPT1, the half-maximal degradation concentration (DC50) was greater than 14000 nM and the Dmax is 11%. Moreover, at Cyclin E1, the half-maximal degradation concentration (DC50) came out at 45 nM, the Dmax came to 110% and the “Ratio of GSPT1 DC50/Cyclin E1 DC50” value is on record as greater than 308. Further, in the experiment on Phospho-Rb (Ser807/811), half-maximal inhibition (IC50) required 30 nM and the Emax amounted to 128%.
